Series [1] deals with PCI-04A cells. Nature of the series: Apoptosis assay (annexin V-FITC/propidium iodide flow cytometry). The note with it: 10 mM, PCI-04A. As to the method: (§1) FIGS. (7A1–7A3), (7B1–7B2), (7C1–7C3), (7D1–7D2), (7E1–7E3), (7F1–7F2). […] Cells were grown in serum-free medium overnight in T-25 flasks and treated with tempol (10 mM) or tempo (10 mM) for various times, trypsinized, and then resuspended in 200 ul 1× binding buffer as described in experimental procedures. The cell suspension was double-stained with annexin V-FITC and propidium iodide and analyzed by flow cytometry. Background signal was determined by comparison with double-stained, single-stained, or unstained control cells. (7A1–7A3), (7C1–7C3), and (7E1–7E3) are cytograms showing a relative distribution of viable (V), apoptotic (A), and necrotic (N) cells at 2 h following tempol or tempo treatment of MDA-MB 231 cells (A), PCI-04A cells (C), and PC-3 cells (E). (7B1–7B3), (7D1–7D2), and (7F1–7F2) are time course analyses of MDA-MB 231 cells (B), PCT-04A cells (D), and PC-3 cells (F). 100,000 cells were analyzed at each time point in triplicate (B) or quadruplicate (D and F). Solid bars, 1% ethanol, striped bars, 10 mM tempol, empty bars, 10 mM tempo. […] Data shown are representative from three to four independent experiments. (7B1–7B2), Time course analysis of MDA-MB 231 cells undergoing apoptosis (annexin V-FITC staining) (7B1), or necrosis (propidium iodide staining) (7B2). Values shown are mean±s.d. of triplicate determinations per time point in each treatment category, and representative of three to four independent experiments. […] (7D1–7D2), Time course analysis of PCI-04A cells undergoing apoptosis (annexin V-FITC staining) (7D1), or necrosis (propidium iodide staining) (7D2). Values shown are mean±s.d. of quadruplicate determinations per time point in each treatment category. […] (7F1–7F2), Time course analysis of PC-3 cells undergoing apoptosis (annexin V-FITC staining) (7F1), or necrosis (propidium iodide staining) (7F2). Values shown are mean±s.d. of quadruplicate determinations per time point in each treatment category. Control/C, cells treated with 1% ethanol for 2 h.
(§2) Apoptosis Assay—ApoAlert Annexin V apoptosis detection system (Clontech Lab Inc., Palo Alto, Calif.) was used to measure the relative distribution of apoptotic and necrotic cells. Briefly, cells were seeded at a density of 1×10^6 cells per 25 cm^2 tissue culture flask in medium containing 10% FBS overnight, followed by washing twice in serum-free medium. Cells were maintained overnight in serum-free medium and exposed to tempol (10 mM) or tempo (10 mM) for various times. This was followed by rinsing twice with serum-free medium prior to trypsinization, dilution in two volumes of serum-free medium, and centrifugation at 10,000× g. The cell pellet was washed once with PBS and resuspended in 200 ul of 1× binding buffer. The cell suspension was double-labeled with fluorescein isothiocyanate (FITC)-labeled annexin V (10 ul) and propidium iodide (PI) (10 ul) according to the manufacturer's instructions. Unlabeled cells or untreated cells labeled with either FITC-annexin V or PI, or double-labeled served as internal controls for the background signal. The intensity of the dye uptake by cells was detected using FACStar plus Flow Cytometer (Becton Dickerson, Lincoln Park, N.J.), and data were analyzed using Reproman True Facts software (Seattle, Wash.). Viable cells were FITC−/PI−, apoptotic cells were FITC+/PI−, and necrotic cells were FITC+/PI+.
A general note: A flow cytometer gives signals particle by particle.

Series [2] relates to MDA-MB 231 cells. The description is as above. The note with it: 10 mM, MDA-MB 231; for apoptosis/necrosis, time course analysis: up to 3 h. The protocol:
as §1, §2

Series [3] relates to MDA-MB 231 cells. Nature of the series: Cell viability assay (WST-1). Format: cell-based, human. The note with it: 10 mM, within 2 h. As to the method: FIG. 6. Effects of tempol and tempo on cell viability. […] Control cells were grown overnight in serum-free medium, followed by treatment with 1% ethanol for various times. Fresh serum-free medium (100 ul) was added to each well in all plates, including controls followed by the addition of WST-1 (10 ul). Plates were incubated for 2 h at 37° C. and the color solution developed by WST-1 was quantified using a MR 700 microplate reader at OD=450/600. Values shown are mean±s.d. of 6 determinations per treatment condition in a representative experiment, and the experiment was repeated three times.
Cell Viability Assay—Effects of nitroxide compounds on cell viability and proliferation were determined using a cell viability detection kit (4-[3-(4-Iodophenyl)-2-(4-nitrophenyl)-2H-5-tetrazolio]-1,3-benzene disulfonate, WST-1) according to the manufacturer's instructions (Boehringer Mannheim, Indianapolis, Ind.). Briefly, MDA-MB 231 cells were seeded onto 96 well plates at density of 10,000 cells per well and maintained overnight in 10% FBS containing medium. The cells were then washed twice with phosphate buffered saline and re-fed in serum-free medium. The following day, cells were treated for various times with tempol (10 mM) or tempo (10 mM), using six wells per treatment condition. […] Plates were incubated for 2 h at 37° C. and analyzed at OD=450/600 using a MR 700 microplate reader.

Bounds are passed on as bounds.

As for `CC1(C)CCCC(C)(C)N1[O]` [tempo, 2,2,6,6-tetramethylpiperidine-N-oxyl], the “apoptotic cells (A)” value in series [1] (2 h) was determined as 48.35%; in series [2] (2 h), 52.42%. Besides, the “viable cells (V)” value in series [1] (2 h) is listed as 18.61%; in series [2] (2 h), 35.83%. Further, the apoptosis and necrosis result in series [1] (2 h post-treatment) is “significant level of apoptosis and necrosis”. In addition, the “apoptosis/necrosis, time course analysis” value in series [2] is listed as “steady increase in the number of apoptotic cells for upto 2 h, followed by a considerable increase in the number of necrotic cells by 3 h”. Further, the “decrease in the number of viable cells” value in series [3] is listed as above 50%.
On to `CC1(C)CC(O)CC(C)(C)N1[O]` [tempol, 4-hydroxy-tempo, reference compound], for which the figures for the “apoptotic cells (A)” value in series [1] (2 h) and in series [2] (2 h) were 5.44% and 6.32%, respectively. For the same molecule, in series [2], the “apoptosis/necrosis, time course analysis” value is “did not induce apoptosis or necrosis”. Besides, the “decrease in the number of viable cells” value in series [3] is given as “comparable to control cells”.

The values are drawn from patent publication US7074807B2, “Compositions and methods for inducing cell death” (Georgetown University, priority 1998, dated 2006).
